Laboratory results taken from paper PMC7112848 (Journal of Virological Methods, 2008).

Experiments:
[1] = test system: viral NAs; format: biochemical, reverse-genetic influenza A viruses rgH1N1, rgH5N1, rgH1N3
[2] = molecular target: rgH5N1 NA (Influenza A virus, UniProt Q6DPL2); format: biochemical
rgH5N1 NA, sequence (Q6DPL2 whole entry, looked up): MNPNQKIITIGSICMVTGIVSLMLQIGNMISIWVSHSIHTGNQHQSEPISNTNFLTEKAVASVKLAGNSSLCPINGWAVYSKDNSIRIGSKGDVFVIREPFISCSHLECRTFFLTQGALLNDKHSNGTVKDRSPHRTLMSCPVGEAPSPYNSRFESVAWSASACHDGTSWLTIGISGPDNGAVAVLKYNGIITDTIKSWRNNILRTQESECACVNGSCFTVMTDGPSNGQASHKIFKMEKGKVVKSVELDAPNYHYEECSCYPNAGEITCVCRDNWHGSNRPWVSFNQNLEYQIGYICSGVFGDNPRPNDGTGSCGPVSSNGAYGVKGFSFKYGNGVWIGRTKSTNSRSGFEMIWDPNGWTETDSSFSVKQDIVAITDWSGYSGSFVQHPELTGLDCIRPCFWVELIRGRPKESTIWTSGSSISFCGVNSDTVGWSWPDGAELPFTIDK

**Q.** Which results are given for `CC(=O)N[C@@H]1[C@@H](O)C[C@](Oc2ccc3c(C)cc(=O)oc3c2)(C(=O)O)O[C@H]1C(O)[C@H](O)CO` (stereo partly drawn) [MUNANA, 2′-(4-methylumbelliferyl)-α-D-N-acetylneuraminic acid]?
**A.** Km [1]: 15 to 18 µM; Km [2]: 15 ± 3 µM
